Laboratory results reported in patent US9078446B2, “Use of N-(tetrazol-4-yl)- or N-(triazol-3-yl)arylcarboxamides or their salts for controlling unwanted plants in areas of transgenic crop plants being tolerant to HPPD inhibitor herbicides” (BAYER INTELLECTUAL PROPERTY GMBH, priority 2011, dated 2015).

Experiments:
[1] = system: FMP37 (HPPD derived from Blepharisma japonicum); test: Determination of HPPD activity in presence of HPPD inhibitor (percentage of inhibition); assay type: biochemical
Experimental: The HPPD activity was checked by the standard spectrophotmetric assay (method extensively described in WO 2009/144079)
Level of tolerance of HPPD proteins obtained from different organisms was determined according to the procedure as described in PCT/EP2010/070575.
Table E1: Determination of Percentage of Inhibition in Presence of 5.0×10^−6M of Compound “4-137” Compared to the Activity Measured in Absence of Compound No. “4-137” With HPPD Originated from Arabidopsis thaliana (AtHPPD), Mutated Pseudomonas fluorescens PfHPPD-G336W, Avena sativa (AvHPPD), FMP27 (Derived from Kordia algicida) and FMP37 (Derived from Blepharisma japonicum).

[2] = system: non-transformed tobacco plants (Wt); test: Symptoms due to herbicide application on tobacco plants (damage classes 0-3); assay type: in vivo; conditions: 25 g Al/ha, one week after application
How it was run: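 Tobacco plants grown two weeks in single pots after transfer, then sprayed with herbicides at rates in g active ingredient/ha, 8 to 10 plants per group. Symptoms scored on a 0–3 scale: 0 none, 1 light and transient, 2 strong, 3 very strong damage.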

[3] = system: transgenic tobacco plants expressing Avena HPPD (AvHPPD); test: Symptoms due to herbicide application on transgenic tobacco plants (damage classes 0-3); assay type: in vivo; conditions: 25 g Al/ha, one week after application
How it was run: (§1)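 Tobacco transformed via pBin19 with the HPPD gene under CaMV35S, fused to an N-terminal chloroplast transit peptide. T1 plants, potted at 3 weeks and grown 2 more weeks, sprayed with N-(tetrazol-4-yl)/N-(triazol-3-yl)arylcarboxamides (g AI/ha) on 8–10 plants from 1–3 events per transgene. Damage scored 0 (none) to 3 (very strong), versus non-transformed plants.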

[4] = system: transgenic tobacco plants expressing HPPD from Blepharisma japonicum (FMP37); test: as above; assay type: in vivo; conditions: 25 g Al/ha, one week after application
How it was run: as §1

[5] = system: transgenic tobacco plants expressing HPPD from Kordia algicida FMP27; test: as above; assay type: in vivo; conditions: 25 g Al/ha, one week after application
How it was run: as §1

[6] = system: transgenic tobacco plants expressing mutant Pseudomonas fluorescens HPPD G336W (PfHPPD-G336W); test: as above; assay type: in vivo; conditions: PfHPPD-G336W line 646; 25 g Al/ha; one week after application
How it was run: as §1

[7] = system: cotton plants expressing FMP 27 and FMP 37; test: Tolerance to HPPD inhibitors of cotton plants expressing tolerant HPPD enzymes; assay type: in vivo; conditions: T1 cotton plants; one week after application
How it was run: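 Transgenic cotton expressed Blepharisma japonicum (FMP37) or Kordia algicida (FMP27) HPPD under CaMV35S with an N-terminal chloroplast transit peptide. T1 plants came from tembotrione-tolerant T0 events, were grown in single pots, and were sprayed at least 4 weeks later with N-(tetrazol-4-yl)- or N-(triazol-3-yl)arylcarboxamides.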

## Cc1c(C(=O)Nc2nnnn2C)ccc(C(F)(F)F)c1S(C)(=O)=O [Compound 4-137]
[1]; 5.0×10^−6M of compound, compared to activity in absence of compound, FMP37
  Inhibition %: 82%
[1]; FMP37 versus AtHPPD, identical experimental conditions
  tolerance/sensitivity of the HPPD to the inhibitor compared to Arabidopsis thaliana HPPD: less sensitive
[2]
  number of plants with Damage 0 (No damage): 0
  number of plants with Damage 1 (Light and transient damage): 0
  number of plants with Damage 2 (Strong damage): 0
  number of plants with Damage 3 (Very strong damage): 10
[3]; AvHPPD line 656
  number of plants with Damage 0 (No damage): 3
  number of plants with Damage 1 (Light and transient damage): 1
  number of plants with Damage 2 (Strong damage): 1
  number of plants with Damage 3 (Very strong damage): 5
[3]; AvHPPD line 659
  number of plants with Damage 0 (No damage): 3
  number of plants with Damage 1 (Light and transient damage): 3
  number of plants with Damage 2 (Strong damage): 0
  number of plants with Damage 3 (Very strong damage): 4
[3]; AvHPPD line 699
  number of plants with Damage 0 (No damage): 1
  number of plants with Damage 1 (Light and transient damage): 2
  number of plants with Damage 2 (Strong damage): 0
  number of plants with Damage 3 (Very strong damage): 7
[4]; FMP37 line 749
  number of plants with Damage 0 (No damage): 8
  number of plants with Damage 1 (Light and transient damage): 2
  number of plants with Damage 2 (Strong damage): 0
  number of plants with Damage 3 (Very strong damage): 0
[4]; FMP37 line 754
  number of plants with Damage 0 (No damage): 0
  number of plants with Damage 1 (Light and transient damage): 1
  number of plants with Damage 2 (Strong damage): 1
  number of plants with Damage 3 (Very strong damage): 8
[4]; FMP37 line 795
  number of plants with Damage 0 (No damage): 2
  number of plants with Damage 1 (Light and transient damage): 0
  number of plants with Damage 2 (Strong damage): 2
  number of plants with Damage 3 (Very strong damage): 6
[5]; FMP27 line 733
  number of plants with Damage 0 (No damage): 4
  number of plants with Damage 1 (Light and transient damage): 0
  number of plants with Damage 2 (Strong damage): 1
  number of plants with Damage 3 (Very strong damage): 5
[5]; FMP27 line 734
  number of plants with Damage 0 (No damage): 5
  number of plants with Damage 1 (Light and transient damage): 2
  number of plants with Damage 2 (Strong damage): 0
  number of plants with Damage 3 (Very strong damage): 3
[5]; FMP27 line 735
  number of plants with Damage 0 (No damage): 3
  number of plants with Damage 1 (Light and transient damage): 0
  number of plants with Damage 2 (Strong damage): 4
  number of plants with Damage 3 (Very strong damage): 3
[6]
  number of plants with Damage 0 (No damage): 5
  number of plants with Damage 1 (Light and transient damage): 2
  number of plants with Damage 2 (Strong damage): 0
  number of plants with Damage 3 (Very strong damage): 3
[7]
  tolerance of transgenic plants compared to the wild-type cotton plants: superior tolerance
